In BindingDB's records for doi:10.7270/Q20R9MZM (Merrell Dow Research Institute, 1990) one finds Ki data, which are given here for seven compounds.

What is called Ki is a measure of affinity in units of concentration, obtained from inhibition or displacement.

SMILES strings stand for the structures.

This test concerns the target T1, Prunasin hydrolase (Prunus dulcis, UniProt H9ZGD9).
T1 sequence (H9ZGD9 whole entry): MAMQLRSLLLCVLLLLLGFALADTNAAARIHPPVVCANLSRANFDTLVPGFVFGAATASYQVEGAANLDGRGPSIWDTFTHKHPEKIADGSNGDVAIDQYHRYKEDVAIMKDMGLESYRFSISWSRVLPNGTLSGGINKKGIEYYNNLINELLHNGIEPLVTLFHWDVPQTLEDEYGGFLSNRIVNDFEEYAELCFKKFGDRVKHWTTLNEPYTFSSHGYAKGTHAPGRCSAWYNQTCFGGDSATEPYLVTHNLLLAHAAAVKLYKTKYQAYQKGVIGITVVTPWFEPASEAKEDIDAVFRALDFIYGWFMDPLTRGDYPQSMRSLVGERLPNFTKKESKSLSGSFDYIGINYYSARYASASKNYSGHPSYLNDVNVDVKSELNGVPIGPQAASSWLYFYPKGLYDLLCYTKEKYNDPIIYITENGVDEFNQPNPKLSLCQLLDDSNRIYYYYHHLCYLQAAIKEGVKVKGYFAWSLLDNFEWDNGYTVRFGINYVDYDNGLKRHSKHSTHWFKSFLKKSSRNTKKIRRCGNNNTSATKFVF
Description: Enzyme Assay. The following applies: pH 5.6; 37 °C. As for the experimental part:
The enzyme activity was measured by monitoring the increase in absorbance at 400 nm due to hydrolysis of para-nitrophenyl-beta-glucopyranoside. All assays were carried out in the presence of 0.05M sodium acetate buffer (pH 5.6) and 0.1 mM EDTA at 37 C.
In turn, `OC[C@H]1O[C@@H](Oc2ccc(C(F)F)cc2)[C@H](O)[C@@H](O)[C@@H]1O` [Glucosidase inhibitor, 6a] gave a Ki of 1700 µM.

Turning to `COc1cc(CF)ccc1O[C@@H]1O[C@H](CO)[C@@H](O)[C@H](O)[C@H]1O` [Glucosidase inhibitor, 11], the Ki came to 800 µM.

The compound `CCOc1cc(C(F)F)ccc1O[C@@H]1O[C@H](CO)[C@@H](O)[C@H](O)[C@H]1O` [Glucosidase inhibitor, 6c] returned an inhibitory constant (Ki) of 100 µM.

`COc1ccc(O[C@@H]2O[C@H](CO)[C@@H](O)[C@H](O)[C@H]2O)c(C(F)F)c1` [Glucosidase inhibitor, 6f] registered an inhibition constant (Ki) of 900 µM.

For `COc1cc(C(F)F)cc(OC)c1O[C@@H]1O[C@H](CO)[C@@H](O)[C@H](O)[C@H]1O` [Glucosidase inhibitor, 6d], the affinity, expressed as Ki, was 1900 µM.

Compound `COc1cc(C(F)F)ccc1O[C@@H]1O[C@H](CO)[C@@H](O)[C@H](O)[C@H]1O` [Glucosidase inhibitor, 6b] displayed a Ki of 60 µM.

`OC[C@H]1O[C@@H](Oc2ccccc2C(F)F)[C@H](O)[C@@H](O)[C@@H]1O` [Glucosidase inhibitor, 6e] gave a Ki of 3700 µM.
